Entries after “also recorded” stand apart in the source; their conditions may differ. Where only a bound is given, the exact number is not on record here.

The test system of assay [1] is TNFα production. Briefly: TNFα production in mouse BMDMs stimulated by LPS + nigericin. The conditions noted are these: Mouse BMDM, read-out: Geo Av IC50, TNFα. The class given is cell-based. An excerpt:
Inflammasome activation and whole blood assays were essentially carried out as described earlier. Details can be found in the supplementary information section accompanying this publication. A protocol for blood draws from healthy volunteers and use of the blood in preclinical assays was approved by Western Institutional Review Board, Inc (Puyallup, WA, USA). Informed consent was obtained from each donor prior to the first blood draw.
4H). MS: m/z 433.1 (M+H+).
Inflammasome activation.PBMCs (iXCells Biotechnologies, San Diego, USA) were thawed the day before the assay and seeded in complete medium (RPMI 1640 medium with GlutaMAX, supplemented with an additional 2.5 g/L D-glucose, 10% Fet al Bovine Serum, 100 mM Sodium Pyruvate, 1% Penicillin/Streptomycin, 10 mM HEPES and 0.05 mM β -mercaptoethanol) in polystyrene V-bottom 96-well plates at 5x10^4 cells per well and incubated overnight at 37°C with 5% CO 2. […]
flagellin, prepared in Opt iMEM and combined with Lipofectamine 2000. […] After priming Nlrp3 -/- mBMDMs with 100 ng/mL of LPS for 3- 5 h, cells were exposed to 100 ng/mL L18- MDP and incubated overnight.At the end of the incubation period of the assays above, plates were briefly centri fuged and hal f of the cell culture supern atant remo ved and either analysed i mmediately or stored at - 80°C for subs equent cytokine […]

In assay [2] the target is NLRP3 inflammasome (Mus musculus, UniProt Q8R4B8). Briefly: In vivo target engagement: ex vivo LPS + ATP stimulated IL-1β production in blood of orally dosed mice. The note with it: single oral dose 25 mg/kg. As for the experimental part: In vivo pharmacodynamics (PD) were evaluated in mice for determination of target engagement as this species is routinely used for assessment of preclinical efficacy. Treatment of fresh, whole blood with LPS plus ATP results in the NLRP3-dependent release of IL-1β, thus providing a robust method for tracking target engagement of NLRP3 inflammasome inhibitors in the circulation after oral dose administration[36],[47]. In vivo target engagement using ex vivo stimulation of blood was evaluated in mice at various times after oral dosing of JT002. For each time point tested, one group of mice received a single oral dose of 25 mg/kg JT002 (n = 8/group) and another group received the vehicle control (n = 8/group). At the time of harvest, blood was collected from each animal and an aliquot removed and processed to plasma for determination of JT002 concentrations. The remaining blood was stimulated ex vivo with LPS plus ATP followed by analysis of IL-1β concentrations (Fig. 3A). […] Consistent with these findings, plasma concentrations of JT002 decreased over time, with mean concentrations of ≥ 4.0 µM through 8 h and a mean concentration of 6 nM at the 24-h sampling (Fig. 3C,D). […]
NLRP3 inflammasome, sequence (Q8R4B8 whole entry): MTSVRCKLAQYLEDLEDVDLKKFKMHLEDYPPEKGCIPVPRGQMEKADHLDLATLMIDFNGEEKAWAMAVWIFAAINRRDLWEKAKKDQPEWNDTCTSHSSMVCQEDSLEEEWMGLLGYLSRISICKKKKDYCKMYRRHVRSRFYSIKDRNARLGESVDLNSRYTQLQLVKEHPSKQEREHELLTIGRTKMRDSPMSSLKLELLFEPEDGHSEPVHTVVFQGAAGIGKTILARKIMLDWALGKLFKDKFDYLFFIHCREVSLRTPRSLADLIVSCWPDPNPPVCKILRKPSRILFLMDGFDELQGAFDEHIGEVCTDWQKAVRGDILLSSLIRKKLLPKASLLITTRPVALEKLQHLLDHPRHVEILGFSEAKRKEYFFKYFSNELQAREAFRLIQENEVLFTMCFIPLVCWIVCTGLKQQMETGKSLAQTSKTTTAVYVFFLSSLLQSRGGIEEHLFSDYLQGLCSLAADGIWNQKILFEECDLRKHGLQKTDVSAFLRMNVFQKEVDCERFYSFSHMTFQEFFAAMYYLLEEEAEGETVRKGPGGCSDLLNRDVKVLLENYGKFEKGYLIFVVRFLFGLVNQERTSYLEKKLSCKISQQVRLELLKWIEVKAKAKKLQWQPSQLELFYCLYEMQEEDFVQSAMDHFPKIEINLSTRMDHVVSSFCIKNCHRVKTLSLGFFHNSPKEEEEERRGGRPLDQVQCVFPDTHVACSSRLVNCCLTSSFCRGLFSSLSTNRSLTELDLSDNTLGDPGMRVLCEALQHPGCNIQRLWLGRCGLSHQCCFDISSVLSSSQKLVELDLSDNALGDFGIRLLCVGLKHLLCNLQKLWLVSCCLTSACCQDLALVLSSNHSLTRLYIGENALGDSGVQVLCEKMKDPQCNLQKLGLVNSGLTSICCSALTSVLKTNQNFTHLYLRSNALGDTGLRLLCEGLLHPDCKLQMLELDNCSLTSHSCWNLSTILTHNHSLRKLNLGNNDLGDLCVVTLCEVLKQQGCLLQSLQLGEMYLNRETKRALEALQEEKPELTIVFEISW

In general, IC50 refers to the concentration that gives 50% inhibition. A word on the inhibition: it is the drop in the measured response relative to a control, in per cent. On to `CO[C@@H]1COc2c(S(=O)(=O)NC(=O)Nc3c4c(cc5c3CCC5)CCC4)cnn2C1` [JT002], for which, in assay [1], the half-inhibitory concentration (IC50) is > 10 µM. For the same molecule, the inhibition at 25 mg/kg in assay [2] (mouse, 4- and 8-h post-dosing) is ≥ 97%. The “inhibition of ex vivo stimulated IL-1β production” value in assay [2] (24-h post-dosing, 25 mg/kg) is given as “no significant inhibition; also recorded: lack of inhibition”.

Source of the values: article PMC10439952, “JT002, a small molecule inhibitor of the NLRP3 inflammasome for the treatment of autoinflammatory disorders” (Scientific Reports, 2023).
